Test results taken from patent US11938164B2, “Exosome-based cancer assays” (TRUSTEES OF BOSTON UNIVERSITY, priority 2021, dated 2024).

How the values were obtained:
DU145 cells = experiment: RT-PCR of SNAI1 and CD274 in DU145 cells after T2D exosomes plus JQ1 or MZ-1; type: cell-based, human; conditions: MZ-1 50 nM, JQ1 400 nM
Protocol: (FIG. 19A) Expression of SNAI1 and CD274 genes in DU145 cells measured by RT-PCR of cellular RNA after exosome treatment. T2D exosomes (109; T2D Exo) were compared to media only control exosomes (Control), or T2D Exo+JQ1 or MZ1. (JQ1 is a pan-BET inhibitor (400 nM) and MZ-1 is a BRD4-selective degrader (50 nM)). (FIG. 19B) Expression of PD-L1 was measured by flow cytometry after treatments. One million events were analyzed by Flow-Jo and presented as overlaid histograms (control, red trace; experimental, black trace). (FIG. 19C) Flow cytometry data of FIG. 19B were quantified with PD-L1 as percent of parent population. The experiment was conducted in triplicate with differences between means represented as bar graphs. Data were analyzed by two-way ANOVA with statistical significance presented as: ****, P<0.0001 (TGFB, TGF-β positive control at 5 ng/mL for SNAI1 induction; IFNgamma, interferon-γ positive control at 5 ng/mL for CD274 induction).
Procedures were as previously described. Briefly, total RNA was extracted from tumor cells using an RNAeasy Kit (Qiagen). Reverse transcription reactions were performed with 1 μg of total RNA with the QuantiTect Reverse Transcription kit (Qiagen). Gene expression was measured using TaqMan™ master mix (Thermofisher, 4369510) and human gene probes as follows: SNAI (Hs00195591_m1), SNA2 (Hs00950344_m1), CDH1 (Hs01023895_m1), ACTB (Hs00357333_g1), CD274 (encodes PD-L1, Hs01125301_m1), CD155 (encodes PVR or TIGIT ligand, Hs00197846_m1), VIM (Hs00958111_m1), TGFB1 (Hs00998133_m1), and AHNAK (Hs01102463_m1).

PD-L1 = experiment: Flow cytometry of PD-L1 on DU145 cells; type: cell-based, human; conditions: MZ-1 50 nM, JQ1 400 nM
Protocol: Single-cell suspensions were washed after collection and stained in ice-cold Ca^+2/Mg^+2-free PBS with a viability dye (Zombie NIR, BioLegend) for 20 min at 4° C. in the dark. Cell suspensions were then washed twice with ice-cold flow cytometry buffer (Ca^+2/Mg^+2-free PBS, supplemented with 2% FBS and 2 mM EDTA). Cell suspensions were then stained for PD-L1 (PE-conjugated, BD Biosciences). All cell suspensions were washed twice in ice cold flow cytometry buffer before analysis. Unstained cells and single-stained controls were used to calculate flow cytometry compensation. Data acquisition (typically 1 million events) was performed on a BD LSRII instrument at the Boston University Flow Cytometry Core Facility. Data analysis was carried out using FlowJo Software (version 10.6.1, Tree Star).

4T1 cells = experiment: Transwell migration assay with 4T1 cells; type: cell-based, murine; conditions: 50 nM MZ-1
Protocol: FIGS. 9A-9D depict EMT induction in murine 4T1 cells treated with EVs from IS vs IR murine adipocytes. Murine 3T3-L1 adipocytes were differentiated from pre-adipocyte fibroblasts as published (24), treated with 250 pM murine TNFα overnight, as specified to induce insulin resistance (9), then adipocyte conditioned media was used as the source of EVs. (FIG. 9A) 4T1 cells were treated for 3 days with EVs from IS or IR adipocytes, vs. media control EVs, then cells were fixed for immunohistochemistry. Vimentin and E-cadherin, as mesenchymal or epithelial markers respectively, were visualized by fluorophore-conjugated primary anti-mouse antibodies, with phalloidin stain for cytoskeletal structure and DAPI counterstain for DNA. Bar, 10 μm. (FIG. 9B) RT-PCR validation of two selected EMT genes, induced by EVs. (FIG. 9C) Transwell migration assay with 4T1 cells exposed to IS vs IR EVs, or IR treated with 50 nM MZ-1 (25) to inhibit BRD4 and block migration (18,24). (FIG. 9D) Quantitation of B. (n=3; ***, P<0.005).

BRD2, BRD3 and BRD4 = conditions: DU145 cells, cited from earlier work
MCF-7 cells = experiment: EMT/CSC gene expression (RT-PCR, PCR array, IPA) in MCF-7 cells treated with adipocyte exosomes; type: cell-based, human; conditions: MCF7 cells; compared to control EVs
Protocol: RNA was isolated from cells using RNeasy Plus Mini Kit (74136, Qiagen). From each sample, 1 μg of RNA was used to prepare 20 μL cDNA using QuantiTect Reverse Transcription Kit (Qiagen, 205313). Human RT2 Profiler™ PCR Array, including Epithelial to Mesenchymal Transition (EMT) (PAHS-090Z) and Cancer Stem Cell (PAHS-176ZC) arrays, were purchased from Qiagen. Each cDNA sample (102 μL comprised of 1 μg RNA) was mixed with 1,350 μL RT2 SYBR Green ROX qPCR Mastermix (Qiagen, 330522) and 1,248 μL RNAse-free water. A total volume of 2,700 μL was mixed by vortexing and transferred to a reservoir. Then, an 8 channel pipettor was used to take aliquots of reaction mix from the reservoir, to distribute 25 μL into each well of the array. PCR reactions were performed and results were analyzed using a 7500 Fast Real-Time PCR instrument.
All Ct values of the genes were normalized to the respective ACTB gene (delta Ct). […] For the control groups, delta.delta Ct was calculated using this formula: ΔΔCt=ΔCt (C1 or C2 or C3)—ΔCt (Control average). Then, fold-change was calculated using 2∧−ΔΔCt, (2 to the power of negative ΔΔCt). Next, the Z score was calculated based on this formula: Z score=(x-mean)/SD, where X is the fold-change. […]
To predict disease and function, and downstream pathways, data were analyzed through the use of Ingenuity Pathway Analysis, IPA (QIAGEN Inc.). […]

| Compound | expression of SNAI1 induced by T2D plasma exosomes (DU145 cells) | transcription of CD274 induced by T2D plasma exosomes (DU145 cells) | PD-L1 surface protein induced by T2D exosome treatment (PD-L1) | 4T1 migration provoked by exosomes from IR adipocytes (4T1 cells) | elimination of BET proteins, low concentration (BRD2, BRD3 and BRD4; 50 nM) | elimination of BET proteins, high doses (BRD2, BRD3 and BRD4; 400 nM) | transcription of ZEB1 and SNAI2 readout genes (MCF-7 cells) |
| --- | --- | --- | --- | --- | --- | --- | --- |
| Cc1sc2c(c1C)C(c1ccc(Cl)cc1)=N[C@@H](CC(=O)OC(C)(C)C)c1nnc(C)n1-2 [JQ1] | not able to reduce expression below the BRD4-selective level | inhibit transcription to below baseline | inhibited |  |  |  |  |
| Cc1ncsc1-c1ccc(CNC(=O)[C@@H]2C[C@@H](O)CN2C(=O)[C@@H](NC(=O)COCCOCCOCCNC(=O)C[C@@H]2N=C(c3ccc(Cl)cc3)c3c(sc(C)c3C)-n3c(C)nnc32)C(C)(C)C)cc1 [MZ-1] | inhibited expression | same inhibitory effect | inhibited | effectively ablated | selective to eliminate BRD4 protein while preserving BRD2 and BRD3 | eliminate all three somatic BET proteins |  |
| TGF-β |  |  |  |  |  |  | Induction |
